Where a name gives a salt, the structure may show the parent alone. Read-outs that look alike come from different tables or passages of the source.
Key:
[1] = cited from earlier work
[2] = pH of ketamine formulations and ketamine HCl solutions; format: physicochemical
[3] = elevated pHs around 5.5; cited from earlier work
[4] = cited from earlier work; remark: listed apart in the source
[5] = cited from earlier work; remark: listed apart in the source
[6] = cited from earlier work; remark: listed apart in the source
[7] = rat, daily IV injections for 1 month; cited from earlier work
[8] = cited from earlier work; remark: listed apart in the source
[9] = cited from earlier work; remark: listed apart in the source

CC(O)COC[C@H]1O[C@@H]2O[C@H]3[C@H](O)[C@@H](O)[C@@H](O[C@H]4[C@H](O)[C@@H](O)[C@@H](O[C@H]5[C@H](O)[C@@H](O)[C@@H](O[C@H]6[C@H](O)[C@@H](O)[C@@H](O[C@H]7[C@H](O)[C@@H](O)[C@@H](O[C@H]8[C@H](O)[C@@H](O)[C@@H](O[C@H]1[C@H](O)[C@H]2O)O[C@@H]8COCC(C)O)O[C@@H]7COCC(C)O)O[C@@H]6COCC(C)O)O[C@@H]5COCC(C)O)O[C@@H]4COCC(C)O)O[C@@H]3COCC(C)O (stereo partly drawn) [HP-β-CD, hydroxypropyl-beta-cyclodextrin]
amount found safe ([1]; in vivo): ~250 mg/kg/day

CNC1(c2ccccc2Cl)CCCCC1=O (centres unmarked) [ketamine HCl, ketamine hydrochloride]
pH ([2]; 100 mg/mL (ketamine freebase equivalent) in water): around 4
average pH ([2]; measured in USP bottles of ketamine 100 mg/mL): 3.74
average pH ([2]; solutions formed from powdered ketamine HCl): 3.93
precipitation [3]: exhibit precipitation

CNC1(c2ccccc2Cl)CCCCC1=O (centres unmarked) [ketamine, 2-(2-chlorophenyl)-2-(methylamino)cyclohexanone]
Bioavailability (grade) ([4]; Intramuscular): High
Bioavailability ([4]; Intranasal): 25-50%
Bioavailability (grade) ([4]; Intranasal): Low
Bioavailability ([4]; Intravenous): 100%
Bioavailability (grade) ([4]; Intravenous): Highest
Bioavailability ([4]; Oral): 11-20%
Bioavailability (grade) ([4]; Oral): Very Low
Bioavailability ([4]; Subcutaneous): >90%
Bioavailability (grade) ([4]; Subcutaneous): High
Bioavailability ([4]; Sublingual): 29%
Bioavailability (grade) ([4]; Sublingual): Low
Metabolite Exposure ([5]; Intramuscular): Low
Metabolite Exposure ([5]; Intranasal): High
Metabolite Exposure ([5]; Intravenous): Low
Metabolite Exposure ([5]; Subcutaneous): Low
Metabolite Exposure ([5]; Sublingual): High
increase in exposure to undesirable inflammatory metabolites ([5]; oral dosing to reach equivalence to a short IV or IM treatment): up to 9 fold
increase in exposure to undesirable inflammatory metabolites ([5]; sublingual route): 3 fold
Side Effects ([6]; Intramuscular): High
Side Effects ([6]; Intranasal): High
Side Effects ([6]; Intravenous): Moderate
Side Effects ([6]; Oral): Moderate
Side Effects ([6]; Subcutaneous): Low
Side Effects ([6]; Sublingual): Moderate

sulfobutyl-ether-beta-cyclodextrin [SBE-β-CD]
NOEL [7]: 80 mg/kg
amount found safe ([1]; 6 months, humans older than 2 years): ~250 mg/kg/day
tolerability ([1]; infusion rates 292 to 4375 mg/min): well-tolerated with no clinically relevant side effects or changes in renal biomarkers
solubility [8]: 600 mg/mL
osmolality ([9]; 20% solution, degree of substitution 6.5): 785 mOsm/kg
concentration iso-osmotic with blood and extracellular fluid ([9]; according to the manufacturer): 9.5-11.4%

— patent US10973780B2 (priority 2019, dated 2021)
